Data taken from PMC11483378, “Triazole-Based Thiamine Analogues as Inhibitors of Thiamine Pyrophosphate-Dependent Enzymes: 1,3-Dicarboxylate for Metal Binding” (ACS Omega, 2024).
Read-outs that look alike come from different tables or passages of the source.

Columns and labels:
[1] = target: A. viridans PO (Aerococcus viridans, UniProt A9X9K8); assay: A. viridans PO inhibitory activity assay (quinoneimine dye); type: biochemical
Protocol: A. viridans PO and horseradish peroxidase were purchased from Sigma. A. viridans PO activity was determined by monitoring appearance of quinoneimine dye at 550 nm using a microplate reader (CLARIOstar) and conducted as described[5] with some modifications. […] The reaction buffer (50 mM KH2PO4 and 10 mM MgCl2, pH 5.9) contained TPP at specified concentrations, 10 μM flavin adenine dinucleotide, 0.15% 4-aminoantipyrine, 0.3% N-ethyl-N-(2-hydroxy-3-sulfopropyl)-m-toluidine (EHSPT), 50 μg/mL horseradish peroxidase, and 0.35 U/mL A. viridans PO. The reaction mixture was preincubated at 37 °C with inhibitor for 30 min, and then the reaction was initiated by adding pyruvate to a final concentration of 50 mM. To determine the IC50, TPP concentration was set at 60 μM with varying inhibitor concentrations. One unit of PO activity is defined as the production of 1 μmol of hydrogen peroxide per minute. The IC50 values were calculated from nonlinear regression curve fitting using GraphPad Prism.
Enzyme inhibitory activity assays – methods and results (Figures S1-4) […]
The compound […]
A. viridans PO inhibitory activity assay. A. viridans PO and horseradish peroxidase were purchased from Sigma. A. viridans PO activity was determined by monitoring appearance of quinoneimine dye at 550 nm using a microplate reader (CLARIOstar) and conducted as described3 with some modifications. […]
buffer (50 mM KH2PO4 and 10 mM MgCl2, pH 5.9) contained TPP at specified concentrations, 10 µM flavin adenine dinucleotide (FAD), 0.15% 4-aminoantipyrine, 0.3% N-ethyl-N-(2-hydroxy-3-sulfopropyl)-m-toluidine (EHSPT), 50 µg/mL horseradish peroxidase and 0.35 U/mL A. viridans PO. The reaction mixture was preincubated at 37 °C with inhibitor for 30 min, then reaction was initiated by adding pyruvate to a final concentration of 50 mM. To determine the IC50, TPP concentration was set was set at 60 µM with varying inhibitor concentrations. One unit of PO activity is defined as the production of 1 μmol of hydrogen peroxide per minute. The IC 50 values were calculated from non-linear regression curve fitting using GraphPad Prism. […]

[2] = PAMPA (parallel artificial membrane permeability assay); type: in vitro ADME; conditions: for Papp at 10 h, 500 µM: PAMPA, read-out: PAMPA log Pe (converted); for Papp at 10 h, 500 µM / Fa (fraction absorbed): compounds at 500 µM, 5% DMSO in PBS pH 7.4, 10 hours, room temperature
Protocol: PAMPA – methods and results (Table S2)
PAMPA was carried out in 96-well microtiter filter plates obtained from Millipore as described1 with some modifications. Each well of the filter plate was impregnated with 15 µL of 5% hexadecane dissolved in hexane (i.e. total amount of hexadecane: 0.75 µL) for at least 10 minutes in ventilated environment to allow for complete evaporation of hexane. Donor compartments were filled with 200 µL compound-containing donor solutions of compounds dissolved in 5% DMSO, phosphate buffered saline PBS) and connected to acceptor plate prefilled with buffer (5% DMSO in PBS, pH 7.4). The resulting sandwich was incubated at room temperature under gentle shaking and wrapped in wet paper towels to avoid evaporation. After 10 hours, the sandwich was disassembled and the solutions in the acceptor and donor were transferred to a disposable UV-transparent plate. UV absorption was measured at wavelengths between 220 and 340 nm using a microplate reader (CLARIOstar).
Compounds were tested at 500 µM. Calibration to determine concentration of compounds were performed with varying compound concentrations in buffer (5% DMSO in PBS).
The artificial membrane permeability is expressed as fraction absorbed (Fa%)2 or log Pe (log of the effective permeability)1. LogD values at pH 7.4 were calculated using MarvinSketch.
Fa% = 100 ∙CA ∙VA / CD0 ∙ VD where: CA = final drug concentration in the acceptor well (µM)
VA = volume in the acceptor well (cm3)
CD0 = Initial drug concentration in the donor well (µM)
VD = volume in the donor well (cm3) log P (cm/s) = log -ln 1-CA/Cequilibrium
S = surface area (cm2), typically 0.268 cm2
Cequilibrium = theoretical equilibrium concentration = [CD ∙VD+CA ∙VA] / [VD+VA] where: CD = final drug concentration in the donor well (µM)
CA = final drug concentration in the acceptor well (µM)
Table S2. Permeability data.
Compounds Fa (%) PAMPA log Pe (cm/s) cLogD (pH = 7.4)

[3] = [Compound] = 250 μM, [TPP] = 50 μM
[4] = [Compound] = [TPP] = 250 μM; read-out: % Inhibition (1:1)
[5] = [TPP] = 60 µM; read-out: IC50 (μM ± SEM)
[6] = calculated from KM(TPP) 5 µM using [TPP]/IC50 = KM(TPP)/KI; read-out: KI
[7] = calculated from KM(TPP) 5 µM using [TPP]/IC50 = KM(TPP)/KI
[8] = read-out: IC50 (μM ± SEM); [TPP] = 60 µM

A. viridans PO, sequence (A9X9K8 entry or part of it): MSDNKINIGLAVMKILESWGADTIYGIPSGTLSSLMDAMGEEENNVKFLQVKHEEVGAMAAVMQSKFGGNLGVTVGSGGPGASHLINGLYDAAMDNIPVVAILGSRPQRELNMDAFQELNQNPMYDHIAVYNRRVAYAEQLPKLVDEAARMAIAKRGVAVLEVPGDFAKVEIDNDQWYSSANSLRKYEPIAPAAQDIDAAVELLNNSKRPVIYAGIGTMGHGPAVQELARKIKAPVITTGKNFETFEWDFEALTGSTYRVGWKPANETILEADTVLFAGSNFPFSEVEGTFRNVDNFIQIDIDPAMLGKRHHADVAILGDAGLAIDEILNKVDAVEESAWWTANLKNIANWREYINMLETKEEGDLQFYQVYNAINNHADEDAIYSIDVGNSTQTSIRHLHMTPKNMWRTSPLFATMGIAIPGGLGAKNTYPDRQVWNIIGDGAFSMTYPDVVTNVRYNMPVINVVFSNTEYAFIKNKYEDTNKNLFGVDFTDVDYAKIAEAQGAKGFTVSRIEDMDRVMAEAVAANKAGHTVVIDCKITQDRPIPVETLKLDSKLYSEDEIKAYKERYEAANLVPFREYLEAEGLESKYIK

COC(=O)C(CCCc1cn(Cc2cnc(C)nc2N)nn1)C(=O)OC [13b]
% Inhibition (5:1) [1, 3]: 65 ± 5% | inhibition at 250 µM [1, 4]: 29 ± 4% | vs TPP: affinity of the compound relative to that of TPP (= [TPP]/IC50) ([1]; [TPP] = 60 µM): 0.39 | IC50 [1, 5]: 152 ± 24 µM | Ki [1, 6]: 13 µM | Papp at 10 h, 500 µM [2]: 6.31 ×10⁻⁶ cm/s | Fa (fraction absorbed) [2]: 42%

COC(=O)C(CCc1cn(Cc2cnc(C)nc2N)nn1)C(=O)OC [13a]
% Inhibition (5:1) [1, 3]: 62 ± 4% | inhibition at 250 µM [1, 4]: 26 ± 4% | vs TPP: affinity of the compound relative to that of TPP (= [TPP]/IC50) ([1]; [TPP] = 60 µM): 0.32 | IC50 [1, 5]: 189 ± 44 µM | Ki [1, 6]: 16 µM | membrane permeability in PAMPA (in words) [2]: membrane-permeable | Papp at 10 h, 500 µM [2]: 6.31 ×10⁻⁶ cm/s | Fa (fraction absorbed) [2]: 39%

Cc1ncc(Cn2cc(CCCC(=O)[O-])nn2)c(N)n1.[K+] [16a]
% Inhibition (5:1) [1, 3]: 59 ± 3% | inhibition at 250 µM [1, 4]: 22 ± 5% | vs TPP: affinity of the compound relative to that of TPP (= [TPP]/IC50) ([1]; [TPP] = 60 µM): 0.30 | Ki [1, 7]: 17 µM | IC50 [1, 8]: 202 ± 34 µM | membrane permeability in PAMPA (in words) [2]: impermeable | Papp at 10 h, 500 µM [2]: 0.398 ×10⁻⁶ cm/s | Fa (fraction absorbed) [2]: 3%

COC(=O)CCCc1cn(Cc2cnc(C)nc2N)nn1 [15a]
% Inhibition (5:1) [1, 3]: 52 ± 3% | inhibition at 250 µM [1, 4]: 21 ± 4% | vs TPP: affinity of the compound relative to that of TPP (= [TPP]/IC50) ([1]; [TPP] = 60 µM): 0.22 | IC50 [1, 5]: 274 ± 52 µM | Ki [1, 6]: 23 µM | membrane permeability in PAMPA (in words) [2]: membrane-permeable | Papp at 10 h, 500 µM [2]: 5.01 ×10⁻⁶ cm/s | Fa (fraction absorbed) [2]: 38%

COC(=O)CCCCc1cn(Cc2cnc(C)nc2N)nn1 [15b]
% Inhibition (5:1) [1, 3]: 59 ± 3% | inhibition at 250 µM [1, 4]: 24 ± 4% | vs TPP: affinity of the compound relative to that of TPP (= [TPP]/IC50) ([1]; [TPP] = 60 µM): 0.28 | IC50 [1, 5]: 214 ± 31 µM | Ki [1, 6]: 18 µM | membrane permeability in PAMPA (in words) [2]: membrane-permeable | Papp at 10 h, 500 µM [2]: 6.31 ×10⁻⁶ cm/s | Fa (fraction absorbed) [2]: 44%

Cc1ncc(Cn2cc(CCCC(C(=O)[O-])C(=O)[O-])nn2)c(N)n1.[K+].[K+] [14b]
% Inhibition (5:1) [1, 3]: 85 ± 4% | inhibition at 250 µM [1, 4]: 55 ± 4% | vs TPP: affinity of the compound relative to that of TPP (= [TPP]/IC50) ([1]; [TPP] = 60 µM): 1.22 | Ki [1, 7]: 4.1 µM | IC50 [1, 8]: 49 ± 7 µM | membrane permeability in PAMPA (in words) [2]: membrane-impermeable | Papp at 10 h, 500 µM [2]: 0.158 ×10⁻⁶ cm/s | Fa (fraction absorbed) [2]: 1%

Cc1ncc(Cn2cc(CCC(C(=O)[O-])C(=O)[O-])nn2)c(N)n1.[K+].[K+] [14a]
% Inhibition (5:1) [1, 3]: 76 ± 3% | inhibition at 250 µM [1, 4]: 41 ± 3% | vs TPP: affinity of the compound relative to that of TPP (= [TPP]/IC50) ([1]; [TPP] = 60 µM): 0.69 | Ki [1, 7]: 7.3 µM | IC50 [1, 8]: 87 ± 11 µM | membrane permeability in PAMPA (in words) [2]: impermeable | Papp at 10 h, 500 µM [2]: 0.316 ×10⁻⁶ cm/s | Fa (fraction absorbed) [2]: 2%

Cc1ncc(Cn2cc(CCCCC(=O)[O-])nn2)c(N)n1.[K+] [16b]
% Inhibition (5:1) [1, 3]: 63 ± 3% | inhibition at 250 µM [1, 4]: 28 ± 4% | vs TPP: affinity of the compound relative to that of TPP (= [TPP]/IC50) ([1]; [TPP] = 60 µM): 0.35 | Ki [1, 7]: 14 µM | IC50 [1, 8]: 171 ± 29 µM | membrane permeability in PAMPA (in words) [2]: impermeable | Papp at 10 h, 500 µM [2]: 0.398 ×10⁻⁶ cm/s | Fa (fraction absorbed) [2]: 2%
